Measured values taken from patent publication EP2600854B1, “PHENETHYL, PHENETHYLENE, PHENETHYNE AND INDANONE DERIVATES IN COSMETIC FORMULATIONS, ESPECIALLY FOR USE IN SKIN AGEING PROCESSES” (Merck Patent GmbH, priority 2010, dated 2012).
≈ marks a conversion by molar mass, not a printed value. Like-named read-outs stand apart in the source and are kept apart here.

Columns and labels:
[1] = Solubility comparison in the cosmetic oil isopropyl myristate; assay type: physicochemical; details: for solubility: isopropyl myristate, organic solvent or mixture, Isopropylmyristat, read-out: Löslichkeiten
Experimental: Im Parallelversuch werden 20mg der Substanz 4a mit zunächst 800µL Isopropylmyristat versetzt. […] Daraus errechnen sich Löslichkeiten für 1 a von mindestens 2,5% bzw. für 4a von maximal 1,0% bezogen auf das eingesetzte Volumen Öl. Im anschließenden Verifizierungsexperiment bei Raumtemperatur von 23°C ergeben sich Löslichkeiten von 2,4% für 1 a sowie 0,4% für 4a.

[2] = In-situ generation of 4a from 1a under sun-simulated radiation (Suntester), HPLC analysis; assay type: physicochemical; details: 5mg 1a in 10 mL Ethanol
Experimental: 5mg der Substanz 1 a werden in 10 mL Ethanol gelöst. Mit der Lösung wird ein NMR-Röhrchen vollständig befüllt, verschlossen und für 4 Stunden im Suntester sonnensimulierter Strahlung ausgesetzt (Atlas CPS+ Suntester, 765 Wm^-2). Nach Bestrahlung wird die Lösung per HPLC untersucht. Im Dunkelexperiment ist die Substanz 4a abwesend, während im Belichtungexperiment Substanz 4a zu 2% bei der Detektionswellenlänge von 272nm nachgewiesen wird.

[3] = 30°C, bezogen auf das eingesetzte Volumen Öl, calculated from 20mg in 800µL (1a) or 800µL + 1200µL (4a)
[4] = Verifizierungsexperiment bei Raumtemperatur von 23°C

Row | SMILES | Dissolution of 20mg in 800µL Isopropylmyristat ([1]; 20mg, 30°C) | solubility [1, 3] | solubility [1, 4] | Substanz 4a nachgewiesen (HPLC) im Belichtungexperiment ([2]; 4 Stunden sonnensimulierte Strahlung (Atlas CPS+ Suntester, 765 Wm^-2), Detektionswellenlänge 272nm) | Substanz 4a (HPLC) im Dunkelexperiment ([2]; no irradiation) | Dissolution of 20mg after addition of further 1200µL Isopropylmyristat ([1]; 20mg, 800µL + 1200µL Isopropylmyristat)
1 | COc1ccc(C(=O)/C=C/c2ccc(C(C)(C)C)cc2)cc1 [1a, E-3-(4-tert.-Butyl-phenyl)-1-(4-methoxy-phenyl)-propenon] | vollständig gelöst | ≥ 25 mg/mL | 24 mg/mL (≈ 81.5 mM) | 2% | abwesend | –
2 | COc1ccc2c(c1)C(c1ccc(C(C)(C)C)cc1)CC2=O (stereo not drawn) [4a, 3-(4-tert.-Butyl-phenyl)-5-methoxy-indan-1-on] | keine vollständige Löslichkeit | ≤ 10 mg/mL | 4 mg/mL (≈ 13.6 mM) | – | – | deutlicher Bodensatz in der trüben Dispersion
